Test results published in the supplement of paper PMC10307832.

Each cell line was assayed with c1ccc2c(CCNc3ccc(Nc4ccncc4)cc3)c[nH]c2c1 [Serdemetan] + NC(=O)Nc1cc(-c2cccc(F)c2)sc1C(=O)N[C@H]1CCCNC1 [AZD7762] (partner 0.2 µM) (assay: relative viability (nuclei count vs DMSO), 5 days (fraction); higher = more cells survive). Conditions: first compound 0.04 µM.
Outline: (§1)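 Relative viability is defined as nuclei in treated wells over nuclei in vehicle wells. Duplicate plates were run and medians reported. Lung cancer cell lines in 1536-well plates were dosed by pin tool one day after seeding, with one drug or with a fixed anchor-drug dose plus five library-drug doses (not always all listed) in √10 steps, and nuclei were counted after 5 days.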
In the case of NCI-H522, the relative viability is reported as 0.731.
In the case of NCI-H727, the relative viability is reported as 0.562.
NCI-H1703 showed a relative viability of 0.176.
In the case of NCI-H1993, the relative viability is reported as 0.789.
NCI-H838 gave a relative viability of 0.866.
Cell Line LCLC-103H has a relative viability of 0.788.
With NCI-H2126 the relative viability was 0.924.
EMC-BAC-2 gave a relative viability of 1.08.
Cell Line NCI-H2085 has a relative viability of 0.995.
HCC-366 gave a relative viability of 0.124.
For NCI-H1666, the relative viability was 0.812.
In the case of NCI-H596, the relative viability is reported as 1.17.
For LK-2, the relative viability was 0.454.
Work on NCI-H2087 yielded a relative viability of 1.23.
With NCI-H2342 the relative viability was 0.516.
H3255 gave a relative viability of 0.826.
In the case of LOU-NH91, the relative viability is reported as 0.768.
With ChaGo-K-1 the relative viability was 0.876.
With NCI-H2170 the relative viability was 0.891.
Cell Line NCI-H2405 has a relative viability of 0.747.
SW 900 gave a relative viability of 0.647.
With CAL-12T the relative viability was 0.557.

Same assay, conditions: first compound 0.1265 µM
NCI-H522 was tested, and the relative viability was 0.699.
Cell Line NCI-H727 has a relative viability of 0.437.
Cell Line NCI-H1703 has a relative viability of 0.121.
Work on NCI-H1993 yielded a relative viability of 0.897.
Work on NCI-H838 yielded a relative viability of 0.94.
In the case of LCLC-103H, the relative viability is reported as 0.79.
With NCI-H2126 the relative viability was 1.04.
Work on EMC-BAC-2 yielded a relative viability of 1.1.
NCI-H2085 gave a relative viability of 0.916.
HCC-366 gave a relative viability of 0.0954.
Work on NCI-H1666 yielded a relative viability of 0.721.
With NCI-H596 the relative viability was 1.19.
Cell Line LK-2 has a relative viability of 0.304.
NCI-H2087 showed a relative viability of 0.828.
NCI-H2342 gave a relative viability of 0.467.
H3255 gave a relative viability of 0.601.
Cell Line LOU-NH91 has a relative viability of 0.746.
Work on ChaGo-K-1 yielded a relative viability of 0.801.
For NCI-H2170, the relative viability was 0.964.
NCI-H2405 was tested, and the relative viability was 0.721.
Cell Line SW 900 has a relative viability of 0.652.
For NCI-H1648, the relative viability was 0.809.
For CAL-12T, the relative viability was 0.609.

Same assay, conditions: first compound 0.4 µM
NCI-H522 gave a relative viability of 0.931.
With NCI-H727 the relative viability was 0.526.
In the case of NCI-H1703, the relative viability is reported as 0.121.
Work on NCI-H1993 yielded a relative viability of 0.588.
For NCI-H838, the relative viability was 0.887.
In the case of LCLC-103H, the relative viability is reported as 0.763.
NCI-H2126 gave a relative viability of 0.923.
Cell Line EMC-BAC-2 has a relative viability of 1.07.
With NCI-H2085 the relative viability was 0.974.
In the case of HCC-366, the relative viability is reported as 0.0688.
For NCI-H1666, the relative viability was 0.731.
Work on NCI-H596 yielded a relative viability of 1.08.
With LK-2 the relative viability was 0.357.
For NCI-H2087, the relative viability was 0.778.
In the case of NCI-H2342, the relative viability is reported as 0.545.
Cell Line H3255 has a relative viability of 0.733.
Cell Line ChaGo-K-1 has a relative viability of 0.75.
Work on NCI-H2170 yielded a relative viability of 0.873.
NCI-H2405 was tested, and the relative viability was 0.721.
SW 900 gave a relative viability of 0.616.
With NCI-H1648 the relative viability was 0.762.
For CAL-12T, the relative viability was 0.555.

Same assay, conditions: first compound 1.265 µM
Cell Line NCI-H522 has a relative viability of 1.04.
For NCI-H727, the relative viability was 0.443.
NCI-H1993 was tested, and the relative viability was 0.778.
With NCI-H838 the relative viability was 0.849.
LCLC-103H gave a relative viability of 0.759.
NCI-H2126 was tested, and the relative viability was 0.932.
EMC-BAC-2 showed a relative viability of 0.955.
Cell Line NCI-H2085 has a relative viability of 0.801.
HCC-366 was tested, and the relative viability was 0.0374.
Cell Line NCI-H1666 has a relative viability of 0.691.
NCI-H596 was tested, and the relative viability was 0.922.
LK-2 was tested, and the relative viability was 0.269.
NCI-H2087 gave a relative viability of 0.494.
Cell Line NCI-H2342 has a relative viability of 0.39.
H3255 was tested, and the relative viability was 0.832.
ChaGo-K-1 gave a relative viability of 0.507.
For NCI-H2170, the relative viability was 0.746.
NCI-H2405 was tested, and the relative viability was 0.683.
Cell Line SW 900 has a relative viability of 0.437.
For NCI-H1648, the relative viability was 0.594.
With CAL-12T the relative viability was 0.547.

Same assay, conditions: first compound 4 µM
NCI-H522 was tested, and the relative viability was 0.801.
NCI-H727 gave a relative viability of 0.481.
NCI-H1703 gave a relative viability of 0.108.
Cell Line NCI-H1993 has a relative viability of 0.726.
NCI-H838 showed a relative viability of 0.882.
Work on LCLC-103H yielded a relative viability of 0.812.
NCI-H2126 gave a relative viability of 1.04.
With EMC-BAC-2 the relative viability was 0.827.
NCI-H2085 was tested, and the relative viability was 0.792.
For HCC-366, the relative viability was 0.0632.
NCI-H1666 was tested, and the relative viability was 0.634.
NCI-H596 showed a relative viability of 1.16.
Work on LK-2 yielded a relative viability of 0.251.
NCI-H2087 showed a relative viability of 0.535.
In the case of NCI-H2342, the relative viability is reported as 0.457.
H3255 showed a relative viability of 0.792.
LOU-NH91 showed a relative viability of 0.79.
For ChaGo-K-1, the relative viability was 0.545.
NCI-H2170 showed a relative viability of 0.758.
With NCI-H2405 the relative viability was 0.625.
Work on SW 900 yielded a relative viability of 0.359.
NCI-H1648 showed a relative viability of 0.482.
Cell Line CAL-12T has a relative viability of 0.599.

These cell lines were tested with c1ccc2c(CCNc3ccc(Nc4ccncc4)cc3)c[nH]c2c1 [Serdemetan] + CS(=O)(=O)N1CCN(Cc2cc3nc(-c4cccc5[nH]ncc45)nc(N4CCOCC4)c3s2)CC1 [Pictilisib] (partner 1 µM) in the same assay as above. Conditions: first compound 0.04 µM.
Outline: as §1
For NCI-H727, the relative viability was 0.327.
Cell Line NCI-H1650 has a relative viability of 0.57.
EBC-1 gave a relative viability of 0.35.
In the case of NCI-H1703, the relative viability is reported as 0.213.
Work on NCI-H1993 yielded a relative viability of 0.815.
SW 1573 gave a relative viability of 0.533.
With NCI-H838 the relative viability was 0.395.
Work on LCLC-103H yielded a relative viability of 0.629.
For NCI-H520, the relative viability was 0.283.
With NCI-H2126 the relative viability was 0.552.
EMC-BAC-2 was tested, and the relative viability was 0.564.
Cell Line NCI-H2085 has a relative viability of 0.486.
Calu-6 was tested, and the relative viability was 0.912.
With HCC-366 the relative viability was 0.204.
For NCI-H1666, the relative viability was 0.412.
With NCI-H596 the relative viability was 0.41.
Cell Line LK-2 has a relative viability of 0.479.
In the case of NCI-H2087, the relative viability is reported as 0.961.
With SK-MES-1 the relative viability was 0.333.
In the case of H3255, the relative viability is reported as 0.5.
COR-L23 showed a relative viability of 0.665.
For COR-L 105, the relative viability was 0.366.
With IA-LM the relative viability was 0.4.
LOU-NH91 gave a relative viability of 0.519.
In the case of NCI-H2170, the relative viability is reported as 0.365.
With NCI-H2405 the relative viability was 0.457.
Cell Line A549 has a relative viability of 0.537.
Work on NCI-H2009 yielded a relative viability of 0.793.
NCI-H661 showed a relative viability of 0.589.
For SK-LU-1, the relative viability was 0.572.
For NCI-H1299, the relative viability was 0.858.
With NCI-H2228 the relative viability was 0.322.
Cell Line NCI-H2023 has a relative viability of 0.219.
Work on NCI-H1563 yielded a relative viability of 0.613.

Same assay, conditions: first compound 0.1265 µM
NCI-H727 was tested, and the relative viability was 0.421.
NCI-H1650 showed a relative viability of 0.585.
For EBC-1, the relative viability was 0.449.
NCI-H1703 gave a relative viability of 0.278.
For NCI-H1993, the relative viability was 0.884.
With SW 1573 the relative viability was 0.545.
Cell Line NCI-H838 has a relative viability of 0.508.
LCLC-103H showed a relative viability of 0.665.
NCI-H520 showed a relative viability of 0.327.
In the case of NCI-H2126, the relative viability is reported as 0.473.
EMC-BAC-2 gave a relative viability of 0.556.
Cell Line NCI-H2085 has a relative viability of 0.516.
Calu-6 gave a relative viability of 0.888.
